Key:
extracellular O2− [1] = assay: Placental extracellular superoxide production (SOD-inhibitable NBT reduction); assay type: in vivo, mice
Protocol: Placental extracellular superoxide production: Placental extracellular superoxide production was determined by the SOD-inhibitable reduction of nitroblue tetrazolium. Briefly, after sacrifice duplicate placentas where incubated each in 1 ml 1 mg/ml nitroblue tetrazolium (NBT) diluted in PBS, for 1 h. in a CO2 incubator with humidified chamber at 37° C. The soluble yellow form of NBT is reduced by O2.^− generated within the tissue to form an insoluble precipitate of blue-purple formazan that discolorates the tissue. Extracellular O2.^− produces a discoloration of the incubation medium. The incubation was performed in the presence and absence of SOD. The difference in absorbance at 655 nm normalized by the dry weight of placenta between the average of the duplicates in the presence and absence of SOD represents the SOD-inhibitable O2.^− production and was expressed in normalized arbitrary units.

glutathione = assay: Total glutathione in maternal and fetal livers; assay type: in vivo, mice; settings: 16 h
Protocol: Measurement of total glutathione: Glutathione content was measured in maternal and fetal livers of animals treated with and without NAC and sacrificed at 3, 6 and 16 hours after LPS injection. Fetal livers were pooled from all fetuses of each pregnant animal, snap frozen in liquid nitrogen and stored at −80° C. until assayed. Briefly, the frozen tissue was rapidly homogenized in 7.5% trichloroacetic acid in a ratio of 1:20 (w/v). The homogenate was centrifuged at 3000 g for 10 min at 4° C. Total glutathione content was assayed in the supernatant by a colorimetric reaction that involves the formation of a chromophoric thione (Bioxytech GSH-420, Oxis Health Products, Portland, Oreg.) and was expressed in μg/ml by using oxidized glutathione standards and further normalized by the total protein content of the pellet. The protein pellet was solubilized in 0.1 N NaOH and its protein content was estimated using a BCA protein assay kit (Pierce, Rockford, Ill.).

MMP-2 = assay: Gelatin zymography of medium from incubated human term amniochorionic membranes, MMP-2; assay type: cell-based
From the text: Tissues: Full thickness amniochorionic membranes were collected from seven patients without complications of pregnancy undergoing elective C-section at term. The fragment collected was selected from a region at least 10 cm away from the placenta. Immediately after collection, membranes were placed in minimum essential medium (MEM) (Gibco, Grand Island, N.Y.) on ice. Tissue samples were then cut under sterile conditions with a scalpel blade into smaller pieces of similar size. Over the next 30 min., the pieces of membranes were rinsed thoroughly with several changes of MEM and then sterile phosphate buffered saline (PBS) pH=7.8. Preweighed amounts of tissue (approximately 500 mg) consisting of several pieces selected at random were placed in a CO2 incubator with a humidified chamber at 37° C. for 24 hours. Incubations were carried out in a total volume of 2 ml buffer. Both wet weight and dry weight of tissue pieces were determined after incubation and after drying overnight at 60° C., respectively. After incubation the culture-conditioned medium was collected, briefly spun at 1000 g to remove cellular debris and loaded directly on gelatin gels. The concentration of protein in the aliquots of medium was measured with a BCA kit (Pierce, Rockford, Ill.). […]
SDS-Substrate gel electrophoresis (zymography): For detection of MMPs, equal volumes (15 μl) of conditioned medium (containing the activated MMPs) were mixed in a 1:3 ratio with substrate gel buffer (10% SDS, 4% sucrose, 0.25 M Tris-HCl, pH=6.8 and 0.1% bromphenol blue) and loaded directly onto gels without boiling (Raj agopalan et al., 1996 with modifications). […] In order to quantify the gelatinolytic activity of MMPs, the wet gel was scanned on a GS-670 Image Densitometer (Bio-Rad), and analyzed using Multianalyst v1.1 volume quantification system software (Bio-Rad). […]

MMP-9 = assay: Gelatin zymography of medium from incubated human term amniochorionic membranes, MMP-9; assay type: cell-based; settings: for Effect on the increase in MMP-9 induced by X/XO: X 2 mM + XO 20 mU/ml, SOD 500 U/ml
From the text: Tissues: Full thickness amniochorionic membranes were collected from seven patients without complications of pregnancy undergoing elective C-section at term. The fragment collected was selected from a region at least 10 cm away from the placenta. Immediately after collection, membranes were placed in minimum essential medium (MEM) (Gibco, Grand Island, N.Y.) on ice. Tissue samples were then cut under sterile conditions with a scalpel blade into smaller pieces of similar size. Over the next 30 min., the pieces of membranes were rinsed thoroughly with several changes of MEM and then sterile phosphate buffered saline (PBS) pH=7.8. Preweighed amounts of tissue (approximately 500 mg) consisting of several pieces selected at random were placed in a CO2 incubator with a humidified chamber at 37° C. for 24 hours. Incubations were carried out in a total volume of 2 ml buffer. Both wet weight and dry weight of tissue pieces were determined after incubation and after drying overnight at 60° C., respectively. After incubation the culture-conditioned medium was collected, briefly spun at 1000 g to remove cellular debris and loaded directly on gelatin gels. The concentration of protein in the aliquots of medium was measured with a BCA kit (Pierce, Rockford, Ill.).
Drugs and incubations: Incubations were performed in the presence of xanthine (X: 2 mM), xanthine oxidase (XO: 20 mU/ml), the combination xanthine+xanthine oxidase (X/XO), superoxide dismutase (SOD: 500 U/ml), X/XO/SOD, nitro-L-arginine (a nonspecific nitric oxide synthase inhibitor, LNA: 1 mM), X/XO/LNA, S-nitroso-N-acetyl penicillamine (a nitric oxide donor, SNAP 10 mM), X/XO/SNAP, N-acetyl cysteine (NAC: 0.1, 1, 10 mM), lipopolysaccharide (LPS 100 ng/ml). All chemicals were purchased from Sigma (St. Louis, Mo.) unless otherwise specified.
SDS-Substrate gel electrophoresis (zymography): For detection of MMPs, equal volumes (15 μl) of conditioned medium (containing the activated MMPs) were mixed in a 1:3 ratio with substrate gel buffer (10% SDS, 4% sucrose, 0.25 M Tris-HCl, pH=6.8 and 0.1% bromphenol blue) and loaded directly onto gels without boiling (Raj agopalan et al., 1996 with modifications). Briefly, type I gelatin was added to a standard Laemmli 10% acrylamide polymerization mixture at a final concentration of 1 mg/ml. Following electrophoresis, the proteins in the gel were renatured by exchanging SDS with Triton X-100 and the gels were incubated overnight at 37° C. in 50 mM TRIS-HCl, pH=7.4 containing 10 mM CaCl2 and 0.05% Brij 35. At the end of the incubation, the gels were stained with 0.5% Coomassie Blue R-250 (Bio-Rad, Hercules, Calif.) in 40% methanol/10% acetic acid, then destained in 40% methanol/10% acetic acid for 1 h. Proteins having gelatinolytic activity appeared as discrete translucent areas of lytic activity on an otherwise blue gel. When the gels are incubated in parallel with 0.01 M EDTA, disappearance of lytic bands confirms the metal dependence of MMP activity. Migration of proteins was compared with that of prestained broad molecular weight markers (Bio-Rad). Further, 10 ng/lane of zymography standards (recombinant MMP-2/MMP-9, Calbiochem, La Jolla, Calif.) were run along with the samples. In order to quantify the gelatinolytic activity of MMPs, the wet gel was scanned on a GS-670 Image Densitometer (Bio-Rad), and analyzed using Multianalyst v1.1 volume quantification system software (Bio-Rad). […]

C57B16 inbred mice [2] = assay: Timing of birth (latency) in LPS-injected pregnant mice; assay type: in vivo
Protocol: Animals and treatments: C57B16 inbred mice were housed together with CD57/BL6 males under regular light and dark cycles, with stable ambient temperature conditions. The next morning the females were examined for the presence of a vaginal plug. The day of detection of the vaginal plug was designated as day 0. On day 16 of pregnancy the pregnant mice were injected i.p. with either 10 μg lipopolysaccharide (LPS: from E Coli 0111.:B4 from Calbiochem) or saline (controls). […] NAC was diluted in phosphate buffered saline (PBS). After 12 hours the animals were inspected hourly for signs of parturition (posture, bleeding). The time between LPS injection and delivery of the first pup was defined as latency. Fetal viability at birth was recorded after tactile stimulation of the pup. To separate between the effect of prematurity on the fetus and the in utero consequence of endotoxin administration on the fetus, animals were sacrificed at 3, 6 and 16 hours after endotoxin injection in a separate set of experiments.

C57B16 inbred mice [3] = assay: Fetal outcome (viability) in LPS-injected pregnant mice; assay type: in vivo; settings: for Fetuses dead in utero: 16 h after LPS
Protocol: Animals and treatments: C57B16 inbred mice were housed together with CD57/BL6 males under regular light and dark cycles, with stable ambient temperature conditions. The next morning the females were examined for the presence of a vaginal plug. The day of detection of the vaginal plug was designated as day 0. On day 16 of pregnancy the pregnant mice were injected i.p. with either 10 μg lipopolysaccharide (LPS: from E Coli 0111.:B4 from Calbiochem) or saline (controls). N-Acetylcysteine 1 g/kg (NAC: which is a membrane permeable GSH precursor, Sigma, St. Louis Mo. and direct antioxidant) was given p.o. by gavage 30 min before and 2 h after the LPS injection. NAC was diluted in phosphate buffered saline (PBS). After 12 hours the animals were inspected hourly for signs of parturition (posture, bleeding). The time between LPS injection and delivery of the first pup was defined as latency. Fetal viability at birth was recorded after tactile stimulation of the pup. To separate between the effect of prematurity on the fetus and the in utero consequence of endotoxin administration on the fetus, animals were sacrificed at 3, 6 and 16 hours after endotoxin injection in a separate set of experiments.

[4] = test system: superoxide anion in fetal membranes; assay: Nitroblue tetrazolium (formazan) assay of superoxide generation in fetal membranes; assay type: cell-based, human
Protocol: Intracellular superoxide anion generation: Pieces of fetal membranes were immersed in Krebs bicarbonate buffer (118 mM NaCl, 4.7 mM KCl, 1.18 MM MgSO4, 1.18 mM KH2PO4, 11.1 mM D-glucose, 0.016 mM EDTA, 2.2 mM CaCl2, 15.8 mM NaHCO3, pH=7.35−7.4) containing 1 mg/ml nitroblue tetrazolium (NBT), for 180 min. in the CO2 incubator with humidified chamber at 37° C. The soluble yellow form of NBT is reducedby O2.^− generated within the tissue to form an insoluble precipitate of blue-purple formazan. After incubation, the fetal membranes were washed in saline, photographed, placed in 4% formaldehyde and kept overnight in a refrigerator. Specimens were then embedded in OCT Tissue Tek embedding medium (Fisher Scientific, Pittsburgh, Pa.) and frozen in liquid nitrogen. The frozen specimens were cut by cryostat into 20 μm sections, mounted onto electrostatically treated-glass slides (Fisherbrand Superfrost Plus, Fisher Scientific) and counterstained with Neutral Red. They were immediately investigated by light microscopy using a Nikon Eclipse E1000M microscope connected to an MTI DC330 3CCD Color Camera (Dage MTI Inc., Michigan City, Mich.).

[5] = design: species or system mice; settings: mouse, in vivo
Protocol: We have experimentally investigated the transplacental passage of spin trapping compounds. Methodology: C57B16 mice were injected ip with 4 mmols/kg POBN [a-(4-pyridyl-1-oxide-N-t-butylnitrone)] on day 16 of pregnancy. Animals were sacrificed at different times after injection, 2-5 fetuses collected and lipids extracted as described by Brackett et al., 1989. Electron paramagnetic spectra were obtained in a Varian EPR spectrometer equipped with an X-band microwave bridge with center field set at 3376 Gauss and modulation frequency at 100 Hz. The extracts were examined before and after in vitro addition of a hydroxyl radical generating Fenton mixture (Fe^2++H2O2).

extracellular O2− [6] = assay: Cytochrome c reduction assay of the X/XO reaction; assay type: biochemical; settings: SOD 500 U/ml
Protocol: Extracellular superoxide anion generation: O2^− was generated enzymatically from the reaction between 2 mM xanthine (X) and 20 mU/ml xanthine oxidase (XO), as described by McCord and Fridovich (1969). Though these amounts are larger than those routinely used for in vitro generation of O2^− in cell-free experiments, we have based our decision on the presence of both XO and SOD in fetal membranes (Telfer et al., 1997) and on our assumption that the expression of these enzymes will change the efficiency of the X/XO reaction. As a result we monitored the efficiency of the X/XO reaction in our experimental setting by a cytochrome c assay, both in tissue-free conditions as well as in the presence of the tissue (Babior et al., 1973).

[7] = 10 mM NAC, 24 h incubation of human term fetal membranes
[8] = NAC 10 mM, human fetal membranes
[9] = SNAP 10 mM, LNA 1 mM, data not shown
[10] = addition of SOD, 3 hour incubation with NBT

## CC(=O)N[C@@H](CS)C(=O)O [NAC, N-acetylcysteine]
Extracellular O2− [1]; LPS plus NAC, 3 hours
  Effect on the LPS-induced increase in placental extracellular O2− production: not seen
glutathione; LPS-treated pregnant mice, NAC p.o.
  Maternal liver GSH: prevented the decrease
glutathione; fetuses of LPS-injected mice, maternal NAC p.o.
  Fetal liver GSH content: not different from either CRL or LPS
MMP-2; [7]
  MMP-2 activity, % of the levels from the CRL tissue: 20%
MMP-2; [8]
  Effect on MMP-2 in the presence and absence of LPS: dramatically inhibited
MMP-9; [7]
  MMP-9 activity, % of the levels from the CRL tissue: 20%
MMP-9; [8]
  Effect on MMP-9 in the presence and absence of LPS: dramatically inhibited
MMP-9; human fetal membranes
  Effect on the increase in MMP-9 induced by X/XO: prevented the increase in MMP-9
C57B16 inbred mice [2]; LPS plus NAC
  Latency compared statistically with CRL and LPS groups: no longer different from either CRL or LPS animals
C57B16 inbred mice [2]; LPS plus two doses of 1 mg/kg NAC per os, 1 h before and 2 h after LPS, n=12
  Latency period (LPS injection until delivery): 35.13 ± 6.41 h
C57B16 inbred mice [2]; LPS-injected mice with or without NAC
  Kaplan-Maier survival analysis of cumulative birth rates: did not reveal a significant NAC effect
C57B16 inbred mice [2]; NAC alone, no LPS, n=7
  Time of delivery after saline injection: 67.71 ± 5.8 h
C57B16 inbred mice [3]; group that received LPS plus NAC, p=0.006 vs LPS group
  Fetuses dead in utero: 37%
C57B16 inbred mice [3]; mice given NAC before and after LPS
  Proportion of pups born alive: statistically significant increase
[4]; NAC 10 mM, 3 hour incubation with NBT
  Formazan formation in the incubated tissue (macroscopic): completely abolished
[4]; tissues exposed to NAC
  Formazan deposits by light microscopy (intracellular O2− formation): no formazan deposits

## CC(C)(C)[N+]([O-])=Cc1cc[n+]([O-])cc1 [POBN, a-(4-pyridyl-1-oxide-N-t-butylnitrone)]
[5]
  Additional difference in magnitude of the EPR signal, fetus 6 h vs maternal liver 1 h or fetus 1 h: 10 fold

## CC(=O)N[C@H](C(=O)O)C(C)(C)SN=O [SNAP, S-nitroso-N-acetyl penicillamine]
MMP-2; [9]
  Effect on fetal membrane MMP activity (MMP-2): nor the NO donor SNAP had any significant effect
MMP-9; [9]
  Effect on fetal membrane MMP activity (MMP-9): nor the NO donor SNAP had any significant effect

## lipopolysaccharide [LPS]
Extracellular O2− [1]; LPS-injected animals at 3 hours
  Increase in extracellular O2− production in placentas: 2.7 fold
C57B16 inbred mice [3]; LPS group without NAC
  Fetuses dead in utero: 63%
  Vaginal stillbirth rate: 100%

## superoxide dismutase [SOD]
Extracellular O2− [6]
  Change in absorbance at 550 nm (cytochrome c reduction by X/XO): completely inhibited
MMP-9; human fetal membranes
  Effect on the increase in MMP-9 induced by X/XO: reversed
[4]; [10]
  Extracellular formazan formation induced by X/XO: inhibited completely
  Intracellular formazan formation induced by X/XO: only partially

Reference: patent US6852698B2, “Free radical scavengers or promoters thereof as therapeutic adjuvants in preterm parturition” (priority 2000, dated 2005)
